The values that follow come from US12673961B2 (Agios Pharmaceuticals, Inc., priority 2022, dated 2026).

For orientation: AC50 means the midpoint of the concentration-response curve, whichever way the signal moves.

In this assay the target is T1, human PAH with the R408W mutation (Homo sapiens, UniProt P00439, R408W).
T1 construct: expressed in transfected cells
T1 sequence (P00439 1-452 R408W): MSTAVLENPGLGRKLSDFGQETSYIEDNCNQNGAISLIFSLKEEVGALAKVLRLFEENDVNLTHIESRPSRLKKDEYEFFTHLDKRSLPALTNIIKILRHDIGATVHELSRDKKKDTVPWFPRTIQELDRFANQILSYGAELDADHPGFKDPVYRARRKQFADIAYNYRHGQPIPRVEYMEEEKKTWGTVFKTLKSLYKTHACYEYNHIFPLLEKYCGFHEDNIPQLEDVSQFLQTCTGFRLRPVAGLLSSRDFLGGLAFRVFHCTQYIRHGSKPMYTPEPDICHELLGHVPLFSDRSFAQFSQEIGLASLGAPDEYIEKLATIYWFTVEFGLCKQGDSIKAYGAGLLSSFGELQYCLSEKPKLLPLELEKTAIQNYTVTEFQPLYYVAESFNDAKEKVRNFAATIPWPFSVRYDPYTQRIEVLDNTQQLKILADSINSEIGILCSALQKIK
Put plainly: Cell Based Phenylalanine Flux Assay.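 Also: Ten-point dose curve from 2-fold serial dilutions, run in duplicate at 0.5% DMSO final, tracer step used 20 µM sepiapterin and 800 µM labeled phenylalanine.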 The following applies: A375 cells expressing human R408W PAH; 24 hrs compound incubation; 13C-Tyrosine by LC-MS; average where tested multiple times; read-out: AC50.
Procedure: Compounds were resuspended in DMSO, and 2-fold serial dilutions were performed to generate a 10-point dose curve. Compounds were added to plated cells in a total volume of 100 μl, and a final DMSO concentration of 0.5%. Each compound was tested in duplicate. Following compound addition, cells were placed in a 5% CO2, 37° C. tissue culture incubator for 24 hrs. […] 20 μM sepiapterin and 800 μM 13C9,15N-Phenylalanine were added. After 4 hours, cell media was removed. An aliquot of 10 μl of cell media was combined with 200 μl of extraction buffer (80% acetonitrile/20% H2O) for each well. Determination of ^13C-Tyrosine concentration was assessed by liquid chromatography mass spectrometry.
Where a compound was tested multiple times, the average value of the tests is reported.
Turning to `Cc1cccn2nc([C@@H]3c4nc[nH]c4CCN3C(=O)c3oc(C4(O)CC4)nc3C(F)F)cc12` [Example 1220, (S)-(4-(difluoromethyl)-2-(1-hydroxycyclopropyl)oxazol-5-yl)(4-(4-methylpyrazolo[1,5-a]pyridin-2-yl)-6,7-dihydro-1H-imidazo[4,5-c]pyridin-5(4H)-yl)methanone], the AC50 is under 500 nM. The figure for `Cn1cc(-c2nnc(C(=O)N3CCc4[nH]cnc4[C@H]3c3cc4cccc(F)n4n3)o2)cn1` [Example 1224, (S)-(4-(7-fluoropyrazolo[1,5-a]pyridin-2-yl)-6,7-dihydro-1H-imidazo[4,5-c]pyridin-5(4H)-yl)(5-(1-methyl-1H-pyrazol-4-yl)-1,3,4-oxadiazol-2-yl) methanone] is 500 to 1000 nM; for `O=C(c1nnc(C2CC2)o1)N1CCc2[nH]cnc2[C@H]1c1cc2cccc(F)n2n1` [Example 1246, (S)-(5-cyclopropyl-1,3,4-oxadiazol-2-yl)(4-(7-fluoropyrazolo[1,5-a]pyridin-2-yl)-6,7-dihydro-1H-imidazo[4,5-c]pyridin-5(4H)-yl)methanone] it is 500 to 1000 nM. `O=C(c1nnc(C2CC2)o1)N1CCc2[nH]cnc2[C@@H]1c1cc2cccc(F)n2n1` [Example 1247, (R)-(5-cyclopropyl-1,3,4-oxadiazol-2-yl)(4-(7-fluoropyrazolo[1,5-a]pyridin-2-yl)-6,7-dihydro-1H-imidazo[4,5-c]pyridin-5(4H)-yl)methanone]: the AC50 was 1000 to 5000 nM. Next, `O=C(c1nnc(-c2ccncn2)o1)N1CCc2[nH]cnc2[C@H]1c1cc2c(F)cccn2n1` [Example 1258, (S)-(4-(4-fluoropyrazolo[1,5-a]pyridin-2-yl)-6,7-dihydro-1H-imidazo[4,5-c]pyridin-5(4H)-yl)(5-(pyrimidin-4-yl)-1,3,4-oxadiazol-2-yl)methanone]: 500 to 1000 nM; `Cc1nc(C(C)(C)F)oc1C(=O)N1CCc2[nH]cnc2[C@H]1c1cc2cccc(C(F)(F)F)n2n1` [Example 1265, (S)-(2-(2-fluoropropan-2-yl)-4-methyloxazol-5-yl)(4-(7-(trifluoromethyl)pyrazolo [1,5-a]pyridin-2-yl)-6,7-dihydro-1H-imidazo[4,5-c]pyridin-5(4H)-yl)methanone]: under 500 nM; `Cc1cccc2cc([C@@H]3c4nc[nH]c4CCN3C(=O)c3oc(C4(O)CC4)nc3C(F)F)nn12` [Example 1280, (S)-(4-(difluoromethyl)-2-(1-hydroxycyclopropyl)oxazol-5-yl)(4-(7-methylpyrazolo[1,5-a]pyridin-2-yl)-6,7-dihydro-1H-imidazo[4,5-c]pyridin-5(4H)-yl)methanone]: under 500 nM.

As to `COc1ccc(-c2nnc(C(=O)N3CCc4[nH]cnc4[C@H]3c3cc4c(Cl)cccn4n3)o2)nc1` [Example 1299, (S)-(4-(4-chloropyrazolo [1,5-a]pyridin-2-yl)-6,7-dihydro-1H-imidazo[4,5-c]pyridin-5(4H)-yl)(5-(5-methoxypyridin-2-yl)-1,3,4-oxadiazol-2-yl)methanone], the AC50 is under 500 nM.

On to `Cc1ncccc1-c1nnc(C(=O)N2CCc3[nH]cnc3[C@@H]2c2cc3c(C(F)(F)F)cccn3n2)o1` [Example 1305, (R)-(5-(2-methylpyridin-3-yl)-1,3,4-oxadiazol-2-yl)(4-(4-(trifluoromethyl)pyrazolo [1,5-a]pyridin-2-yl)-6,7-dihydro-1H-imidazo[4,5-c]pyridin-5(4H)-yl)methanone], for which the AC50 lay in the range of 1000 to 5000 nM. With `O=C(c1nnc(-c2ccccn2)o1)N1CCc2[nH]cnc2[C@H]1c1cc2c(C(F)F)cccn2n1` [Example 1314, (S)-(4-(4-(difluoromethyl)pyrazolo[1,5-a]pyridin-2-yl)-6,7-dihydro-1H-imidazo [4,5-c]pyridin-5(4H)-yl)(5-(pyridin-2-yl)-1,3,4-oxadiazol-2-yl)methanone], the AC50 is under 500 nM. The figure for `O=C(c1nnc(-c2ccccn2)o1)N1CCc2[nH]cnc2[C@@H]1c1cc2c(C(F)F)cccn2n1` [Example 1315, (R)-(4-(4-(difluoromethyl)pyrazolo[1,5-a]pyridin-2-yl)-6,7-dihydro-1H-imidazo [4,5-c]pyridin-5(4H)-yl)(5-(pyridin-2-yl)-1,3,4-oxadiazol-2-yl)methanone] is 1000 to 5000 nM; for `Cc1cccc2cc([C@H]3c4nc[nH]c4CCN3C(=O)c3nnc(C4(C)CC4)o3)nn12` [Example 1318, (R)-(5-(1-methylcyclopropyl)-1,3,4-oxadiazol-2-yl)(4-(7-methylpyrazolo[1,5-a]pyridin-2-yl)-6,7-dihydro-1H-imidazo[4,5-c]pyridin-5(4H)-yl)methanone] it is 1000 to 5000 nM; for `COc1cccn2nc([C@@H]3c4nc[nH]c4CCN3C(=O)c3cnn4ccccc34)cc12` [Example 1326, (S)-(4-(4-methoxypyrazolo [1,5-a]pyridin-2-yl)-6,7-dihydro-1H-imidazo [4,5-c]pyridin-5(4H)-yl)(pyrazolo[1,5-a]pyridin-3-yl)methanone] it is under 500 nM. Turning to `Cc1ncccc1-c1nnc(C(=O)N2CCc3[nH]cnc3[C@@H]2c2cc3c(F)cccn3n2)o1` [Example 1329, (R)-(4-(4-fluoropyrazolo [1,5-a]pyridin-2-yl)-6,7-dihydro-1H-imidazo[4,5-c]pyridin-5(4H)-yl)(5-(2-methylpyridin-3-yl)-1,3,4-oxadiazol-2-yl)methanone], the AC50 is over 5000 nM.

For `O=C(c1nnc(-c2cnccn2)o1)N1CCc2[nH]cnc2[C@H]1c1cc2c(Cl)cccn2n1` [Example 1332, (S)-(4-(4-chloropyrazolo [1,5-a]pyridin-2-yl)-6,7-dihydro-1H-imidazo[4,5-c]pyridin-5(4H)-yl)(5-(pyrazin-2-yl)-1,3,4-oxadiazol-2-yl)methanone], the AC50 was under 500 nM. In the case of `O=C(c1nnc(-c2cnccn2)o1)N1CCc2[nH]cnc2[C@@H]1c1cc2c(Cl)cccn2n1` [Example 1333, (R)-(4-(4-chloropyrazolo [1,5-a]pyridin-2-yl)-6,7-dihydro-1H-imidazo[4,5-c]pyridin-5(4H)-yl)(5-(pyrazin-2-yl)-1,3,4-oxadiazol-2-yl)methanone], the AC50 lay in the range of 1000 to 5000 nM. For `O=C(c1nnc(-c2cccnc2)o1)N1CCc2[nH]cnc2[C@H]1c1cc2cccc(C(F)(F)F)n2n1` [Example 1340, (S)-(5-(pyridin-3-yl)-1,3,4-oxadiazol-2-yl)(4-(7-(trifluoromethyl)pyrazolo [1,5-a]pyridin-2-yl)-6,7-dihydro-1H-imidazo[4,5-c]pyridin-5(4H)-yl)methanone], the AC50 lay within 500 to 1000 nM.

Turning to `O=C(c1nnc(-c2cccnc2)o1)N1CCc2[nH]cnc2[C@@H]1c1cc2cccc(C(F)(F)F)n2n1` [Example 1341, (R)-(5-(pyridin-3-yl)-1,3,4-oxadiazol-2-yl)(4-(7-(trifluoromethyl)pyrazolo [1,5-a]pyridin-2-yl)-6,7-dihydro-1H-imidazo[4,5-c]pyridin-5(4H)-yl)methanone], the AC50 was 1000 to 5000 nM. In the case of `O=C(c1nnc(-c2cccnc2)o1)N1CCc2[nH]cnc2[C@H]1c1cc2ccccn2n1` [Example 1346, (S)-(4-(pyrazolo[1,5-a]pyridin-2-yl)-6,7-dihydro-1H-imidazo[4,5-c]pyridin-5(4H)-yl)(5-(pyridin-3-yl)-1,3,4-oxadiazol-2-yl)methanone], the AC50 was 500 to 1000 nM.

Turning to `Cc1c(-c2nnc(C(=O)N3CCc4[nH]cnc4[C@@H]3c3cc4c(C(F)F)cccn4n3)o2)cnn1C` [Example 1349], the AC50 was over 5000 nM.
